We go through 8 molecules from ChEMBL document CHEMBL4699602, “Stapled and Xenopus Glucagon-Like Peptide 1 (GLP-1)-Based Dual GLP-1/Gastrin Receptor Agonists with Improved Metabolic Benefits in Rodent Models of Obesity and Diabetes” (J Med Chem, 2020).

Each structure is given as a SMILES string. Where a SMILES comes first, the peptide text is derived from it.

In this assay the target is Glucagon-like peptide 1 receptor (Homo sapiens, UniProt P43220). Description: Agonist activity at human GLP-1R expressed in HEK293 cells assessed as stimulation of cAMP accumulation incubated for 20 mins. In kind it is functional, cell-based.
Glucagon-like peptide 1 receptor, sequence (P43220 whole entry): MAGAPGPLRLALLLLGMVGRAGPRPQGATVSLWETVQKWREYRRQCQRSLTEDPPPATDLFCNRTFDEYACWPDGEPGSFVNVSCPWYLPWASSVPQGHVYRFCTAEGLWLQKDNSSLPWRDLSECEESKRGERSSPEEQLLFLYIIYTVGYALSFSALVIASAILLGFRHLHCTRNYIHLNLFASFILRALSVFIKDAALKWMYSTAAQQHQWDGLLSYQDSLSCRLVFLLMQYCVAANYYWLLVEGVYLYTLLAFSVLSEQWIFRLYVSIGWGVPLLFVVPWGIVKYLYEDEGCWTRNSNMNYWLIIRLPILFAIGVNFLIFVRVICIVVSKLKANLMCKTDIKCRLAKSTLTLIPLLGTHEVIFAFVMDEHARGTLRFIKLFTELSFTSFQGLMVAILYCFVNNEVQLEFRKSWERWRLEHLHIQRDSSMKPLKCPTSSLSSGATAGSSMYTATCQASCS
Consider `CC[C@H](C)[C@H](NC(=O)[C@H](CC(C)C)NC(=O)[C@H](Cc1c[nH]c2ccccc12)NC(=O)[C@H](CCC(=O)O)NC(=O)[C@@H](NC(=O)[C@H](CS)NC(=O)[C@H](CCC(=O)O)NC(=O)[C@H](CCCCN)NC(=O)[C@H](C)NC(=O)[C@H](C)NC(=O)[C@H](CCC(=O)O)NC(=O)[C@H](CCC(=O)O)NC(=O)[C@H](CS)NC(=O)[C@H](CC(C)C)NC(=O)[C@H](Cc1ccc(O)cc1)NC(=O)[C@H](CCC(=O)O)NC(=O)[C@@H](NC(=O)[C@@H](NC(=O)[C@H](CC(=O)O)NC(=O)[C@H](CC(N)=O)NC(=O)[C@@H](NC(=O)[C@H](Cc1ccc(O)cc1)NC(=O)[C@@H](NC(=O)CNC(=O)[C@H](CCC(=O)O)NC(=O)C(C)(C)NC(=O)[C@@H](N)Cc1c[nH]cn1)[C@@H](C)O)[C@@H](C)O)C(C)C)[C@@H](C)O)[C@@H](C)CC)C(=O)N[C@@H](CCCCN)C(=O)NCC(=O)N[C@@H](CCCCN)C(=O)N1CCC[C@H]1C(=O)N[C@@H](CO)C(=O)N[C@@H](CO)C(=O)NCC(=O)N[C@@H](C)C(=O)N1CCC[C@H]1C(=O)N1CCC[C@H]1C(=O)N1CCC[C@H]1C(=O)N[C@@H](CO)C(N)=O` (HELM PEPTIDE1{H.[Aib].E.G.T.Y.T.N.D.V.T.E.Y.L.C.E.E.A.A.K.E.C.I.E.W.L.I.K.G.K.P.S.S.G.A.P.P.P.S.[am]}$$$$V2.0), for which the EC50 (in general, the midpoint of the concentration-response curve) stood at 0.22 nM. With `CC[C@H](C)[C@H](NC(=O)[C@H](CC(C)C)NC(=O)[C@H](Cc1c[nH]c2ccccc12)NC(=O)[C@H](CCC(=O)O)NC(=O)[C@@H](NC(=O)[C@H](CS)NC(=O)[C@H](CCC(=O)O)NC(=O)[C@H](CCCCN)NC(=O)[C@H](C)NC(=O)[C@H](C)NC(=O)[C@H](CCC(=O)O)NC(=O)[C@H](CCC(=O)O)NC(=O)[C@H](CS)NC(=O)[C@H](CC(C)C)NC(=O)[C@H](Cc1ccc(O)cc1)NC(=O)[C@H](CCC(=O)O)NC(=O)[C@@H](NC(=O)[C@@H](NC(=O)[C@H](CC(=O)O)NC(=O)[C@H](CC(N)=O)NC(=O)[C@@H](NC(=O)[C@H](Cc1ccc(O)cc1)NC(=O)[C@@H](NC(=O)CNC(=O)[C@H](CCC(=O)O)NC(=O)C(C)(C)NC(=O)[C@@H](N)Cc1c[nH]cn1)[C@@H](C)O)[C@@H](C)O)C(C)C)[C@@H](C)O)[C@@H](C)CC)C(=O)N[C@@H](CCCCN)C(=O)NCC(=O)N[C@@H](CCCCN)C(N)=O` (HELM PEPTIDE1{H.[Aib].E.G.T.Y.T.N.D.V.T.E.Y.L.C.E.E.A.A.K.E.C.I.E.W.L.I.K.G.K.[am]}$$$$V2.0) the figure was 0.59 nM. With `CC[C@H](C)[C@H](NC(=O)[C@H](CC(C)C)NC(=O)[C@H](Cc1c[nH]c2ccccc12)NC(=O)[C@H](CCC(=O)O)NC(=O)[C@H](CS)NC(=O)[C@H](Cc1ccccc1)NC(=O)[C@H](CCC(=O)O)NC(=O)[C@H](CCCCN)NC(=O)[C@H](C)NC(=O)[C@H](C)NC(=O)[C@H](CCC(=O)O)NC(=O)[C@H](CS)NC(=O)[C@H](CCC(=O)O)NC(=O)[C@H](CC(C)C)NC(=O)[C@H](Cc1ccc(O)cc1)NC(=O)[C@H](CCC(=O)O)NC(=O)[C@@H](NC(=O)[C@@H](NC(=O)[C@H](CC(=O)O)NC(=O)[C@H](CC(N)=O)NC(=O)[C@@H](NC(=O)[C@H](Cc1ccc(O)cc1)NC(=O)[C@@H](NC(=O)CNC(=O)[C@H](CCC(=O)O)NC(=O)C(C)(C)NC(=O)[C@@H](N)Cc1c[nH]cn1)[C@@H](C)O)[C@@H](C)O)C(C)C)[C@@H](C)O)C(=O)N[C@@H](CCCCN)C(=O)NCC(=O)N[C@@H](CCCCN)C(=O)N1CCC[C@H]1C(=O)N[C@@H](CO)C(=O)N[C@@H](CO)C(=O)NCC(=O)N[C@@H](C)C(=O)N1CCC[C@H]1C(=O)N1CCC[C@H]1C(=O)N1CCC[C@H]1C(=O)N[C@@H](CO)C(N)=O` (HELM PEPTIDE1{H.[Aib].E.G.T.Y.T.N.D.V.T.E.Y.L.E.C.E.A.A.K.E.F.C.E.W.L.I.K.G.K.P.S.S.G.A.P.P.P.S.[am]}$$$$V2.0), the 50% effective concentration (EC50) was found to be 0.28 nM. With `CC[C@H](C)[C@H](NC(=O)[C@H](CC(C)C)NC(=O)[C@H](Cc1c[nH]c2ccccc12)NC(=O)[C@H](CCC(=O)O)NC(=O)[C@H](CS)NC(=O)[C@H](Cc1ccccc1)NC(=O)[C@H](CCC(=O)O)NC(=O)[C@H](CCCCN)NC(=O)[C@H](C)NC(=O)[C@H](C)NC(=O)[C@H](CCC(=O)O)NC(=O)[C@H](CS)NC(=O)[C@H](CCC(=O)O)NC(=O)[C@H](CC(C)C)NC(=O)[C@H](Cc1ccc(O)cc1)NC(=O)[C@H](CCC(=O)O)NC(=O)[C@@H](NC(=O)[C@@H](NC(=O)[C@H](CC(=O)O)NC(=O)[C@H](CC(N)=O)NC(=O)[C@@H](NC(=O)[C@H](Cc1ccc(O)cc1)NC(=O)[C@@H](NC(=O)CNC(=O)[C@H](CCC(=O)O)NC(=O)C(C)(C)NC(=O)[C@@H](N)Cc1c[nH]cn1)[C@@H](C)O)[C@@H](C)O)C(C)C)[C@@H](C)O)C(=O)N[C@@H](CCCCN)C(=O)NCC(=O)N[C@@H](CCCCN)C(N)=O` (HELM PEPTIDE1{H.[Aib].E.G.T.Y.T.N.D.V.T.E.Y.L.E.C.E.A.A.K.E.F.C.E.W.L.I.K.G.K.[am]}$$$$V2.0) the figure was 0.73 nM; with `CC[C@H](C)[C@H](NC(=O)[C@H](CC(C)C)NC(=O)[C@H](Cc1c[nH]c2ccccc12)NC(=O)[C@H](CS)NC(=O)[C@@H](NC(=O)[C@H](Cc1ccccc1)NC(=O)[C@H](CCC(=O)O)NC(=O)[C@H](CCCCN)NC(=O)[C@H](C)NC(=O)[C@H](C)NC(=O)[C@H](CS)NC(=O)[C@H](CCC(=O)O)NC(=O)[C@H](CCC(=O)O)NC(=O)[C@H](CC(C)C)NC(=O)[C@H](Cc1ccc(O)cc1)NC(=O)[C@H](CCC(=O)O)NC(=O)[C@@H](NC(=O)[C@@H](NC(=O)[C@H](CC(=O)O)NC(=O)[C@H](CC(N)=O)NC(=O)[C@@H](NC(=O)[C@H](Cc1ccc(O)cc1)NC(=O)[C@@H](NC(=O)CNC(=O)[C@H](CCC(=O)O)NC(=O)C(C)(C)NC(=O)[C@@H](N)Cc1c[nH]cn1)[C@@H](C)O)[C@@H](C)O)C(C)C)[C@@H](C)O)[C@@H](C)CC)C(=O)N[C@@H](CCCCN)C(=O)NCC(=O)N[C@@H](CCCCN)C(=O)N1CCC[C@H]1C(=O)N[C@@H](CO)C(=O)N[C@@H](CO)C(=O)NCC(=O)N[C@@H](C)C(=O)N1CCC[C@H]1C(=O)N1CCC[C@H]1C(=O)N1CCC[C@H]1C(=O)N[C@@H](CO)C(N)=O` (HELM PEPTIDE1{H.[Aib].E.G.T.Y.T.N.D.V.T.E.Y.L.E.E.C.A.A.K.E.F.I.C.W.L.I.K.G.K.P.S.S.G.A.P.P.P.S.[am]}$$$$V2.0), 0.089 nM; with `CC[C@H](C)[C@H](NC(=O)[C@H](CC(C)C)NC(=O)[C@H](Cc1c[nH]c2ccccc12)NC(=O)[C@H](CS)NC(=O)[C@@H](NC(=O)[C@H](Cc1ccccc1)NC(=O)[C@H](CCC(=O)O)NC(=O)[C@H](CCCCN)NC(=O)[C@H](C)NC(=O)[C@H](C)NC(=O)[C@H](CS)NC(=O)[C@H](CCC(=O)O)NC(=O)[C@H](CCC(=O)O)NC(=O)[C@H](CC(C)C)NC(=O)[C@H](Cc1ccc(O)cc1)NC(=O)[C@H](CCC(=O)O)NC(=O)[C@@H](NC(=O)[C@@H](NC(=O)[C@H](CC(=O)O)NC(=O)[C@H](CC(N)=O)NC(=O)[C@@H](NC(=O)[C@H](Cc1ccc(O)cc1)NC(=O)[C@@H](NC(=O)CNC(=O)[C@H](CCC(=O)O)NC(=O)C(C)(C)NC(=O)[C@@H](N)Cc1c[nH]cn1)[C@@H](C)O)[C@@H](C)O)C(C)C)[C@@H](C)O)[C@@H](C)CC)C(=O)N[C@@H](CCCCN)C(=O)NCC(=O)N[C@@H](CCCCN)C(N)=O` (HELM PEPTIDE1{H.[Aib].E.G.T.Y.T.N.D.V.T.E.Y.L.E.E.C.A.A.K.E.F.I.C.W.L.I.K.G.K.[am]}$$$$V2.0), 0.16 nM. For the molecule `CC[C@H](C)[C@H](NC(=O)[C@H](Cc1ccccc1)NC(=O)[C@H](CCC(=O)O)NC(=O)[C@H](CS)NC(=O)[C@H](C)NC(=O)[C@H](C)NC(=O)[C@H](CCC(=O)O)NC(=O)[C@H](CCC(=O)O)NC(=O)[C@H](CCC(=O)O)NC(=O)[C@H](CC(C)C)NC(=O)[C@H](Cc1ccc(O)cc1)NC(=O)[C@H](CCC(=O)O)NC(=O)[C@@H](NC(=O)[C@@H](NC(=O)[C@H](CC(=O)O)NC(=O)[C@H](CC(N)=O)NC(=O)[C@@H](NC(=O)[C@H](Cc1ccc(O)cc1)NC(=O)[C@@H](NC(=O)CNC(=O)[C@H](CCC(=O)O)NC(=O)C(C)(C)NC(=O)[C@@H](N)Cc1c[nH]cn1)[C@@H](C)O)[C@@H](C)O)C(C)C)[C@@H](C)O)C(=O)N[C@@H](CCC(=O)O)C(=O)N[C@@H](Cc1c[nH]c2ccccc12)C(=O)N[C@@H](CC(C)C)C(=O)N[C@@H](CS)C(=O)N[C@@H](CCCCN)C(=O)NCC(=O)N[C@@H](CCCCN)C(=O)N1CCC[C@H]1C(=O)N[C@@H](CO)C(=O)N[C@@H](CO)C(=O)NCC(=O)N[C@@H](C)C(=O)N1CCC[C@H]1C(=O)N1CCC[C@H]1C(=O)N1CCC[C@H]1C(=O)N[C@@H](CO)C(N)=O` (HELM PEPTIDE1{H.[Aib].E.G.T.Y.T.N.D.V.T.E.Y.L.E.E.E.A.A.C.E.F.I.E.W.L.C.K.G.K.P.S.S.G.A.P.P.P.S.[am]}$$$$V2.0), the EC50 amounted to 0.26 nM.

As to `CC[C@H](C)[C@H](NC(=O)[C@H](Cc1ccccc1)NC(=O)[C@H](CCC(=O)O)NC(=O)[C@H](CS)NC(=O)[C@H](C)NC(=O)[C@H](C)NC(=O)[C@H](CCC(=O)O)NC(=O)[C@H](CCC(=O)O)NC(=O)[C@H](CCC(=O)O)NC(=O)[C@H](CC(C)C)NC(=O)[C@H](Cc1ccc(O)cc1)NC(=O)[C@H](CCC(=O)O)NC(=O)[C@@H](NC(=O)[C@@H](NC(=O)[C@H](CC(=O)O)NC(=O)[C@H](CC(N)=O)NC(=O)[C@@H](NC(=O)[C@H](Cc1ccc(O)cc1)NC(=O)[C@@H](NC(=O)CNC(=O)[C@H](CCC(=O)O)NC(=O)C(C)(C)NC(=O)[C@@H](N)Cc1c[nH]cn1)[C@@H](C)O)[C@@H](C)O)C(C)C)[C@@H](C)O)C(=O)N[C@@H](CCC(=O)O)C(=O)N[C@@H](Cc1c[nH]c2ccccc12)C(=O)N[C@@H](CC(C)C)C(=O)N[C@@H](CS)C(=O)N[C@@H](CCCCN)C(=O)NCC(=O)N[C@@H](CCCCN)C(N)=O` (HELM PEPTIDE1{H.[Aib].E.G.T.Y.T.N.D.V.T.E.Y.L.E.E.E.A.A.C.E.F.I.E.W.L.C.K.G.K.[am]}$$$$V2.0), the 50% effective concentration (EC50) turned out to be 0.76 nM.
